Here are results for 1 molecule from patent US12516058B2, “Small-molecule compounds for controlling endosomal toll-like receptors and therapeutic agent for autoimmune diseases using same” (priority 2020, dated 2026).

The assay addresses T1, TLR8 (Homo sapiens, UniProt Q9NR97).
T1 construct: endogenous in cells; host or cells: THP-1 (PMA-differentiated)
T1 sequence (Q9NR97 27-1041): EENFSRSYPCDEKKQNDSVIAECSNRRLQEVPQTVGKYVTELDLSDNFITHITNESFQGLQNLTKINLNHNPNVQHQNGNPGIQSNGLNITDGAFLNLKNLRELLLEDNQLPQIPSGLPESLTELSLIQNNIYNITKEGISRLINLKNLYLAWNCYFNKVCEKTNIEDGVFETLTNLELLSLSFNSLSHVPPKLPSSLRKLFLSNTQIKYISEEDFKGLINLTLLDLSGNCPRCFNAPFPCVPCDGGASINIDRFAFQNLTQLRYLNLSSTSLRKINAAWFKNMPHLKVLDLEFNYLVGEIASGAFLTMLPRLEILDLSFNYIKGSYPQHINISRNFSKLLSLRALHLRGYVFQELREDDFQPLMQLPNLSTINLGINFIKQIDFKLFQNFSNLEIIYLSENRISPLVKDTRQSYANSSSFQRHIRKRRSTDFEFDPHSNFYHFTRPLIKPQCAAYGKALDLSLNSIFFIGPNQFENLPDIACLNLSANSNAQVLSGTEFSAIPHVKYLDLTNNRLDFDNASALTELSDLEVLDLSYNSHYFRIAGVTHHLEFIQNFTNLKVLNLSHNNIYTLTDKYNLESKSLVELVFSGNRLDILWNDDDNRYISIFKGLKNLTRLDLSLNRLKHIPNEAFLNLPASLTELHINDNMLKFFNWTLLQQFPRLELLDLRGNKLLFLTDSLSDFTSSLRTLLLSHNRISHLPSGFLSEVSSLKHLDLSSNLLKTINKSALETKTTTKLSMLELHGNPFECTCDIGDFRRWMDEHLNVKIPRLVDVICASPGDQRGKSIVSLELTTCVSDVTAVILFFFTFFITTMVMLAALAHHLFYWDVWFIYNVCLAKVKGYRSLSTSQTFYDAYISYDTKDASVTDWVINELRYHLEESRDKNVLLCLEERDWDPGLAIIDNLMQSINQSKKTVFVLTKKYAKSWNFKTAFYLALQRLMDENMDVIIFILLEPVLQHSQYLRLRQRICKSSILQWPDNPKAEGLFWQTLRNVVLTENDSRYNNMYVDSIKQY
Nature of the assay: TNF-α secretion ELISA after TLR8 agonist TL8-506 in PMA-differentiated THP-1 cells. It counts as cell-based. To be noted: SK01, TL8-506 4 h. The procedure: FIGS. 5A to 5C show the inhibitory activities of SK01 on TLRs (TLR1/2, TLR2/6 and TLR4) exposed to the cell surface, and FIGS. 5D to 5G show the inhibitory activities of SK01 against endosome TLRs (TLR3, TLR7, TLR8 and TLR9), wherein RAW 264.7 cells were treated at predetermined concentrations with a negative control, a positive control (only ligand), additional positive control (ligand and 0.25% DMSO), or SK01 for 1 hour, and then stimulated with TLR-specific agonists for 4 or 24 hours (TLR3 only), a human monocytic cell line (THP-1) was used for TLR8 and THP-1 cells were treated with phorbol 12-myristate 13-acetate for 48 hours to induce cell differentiation, then treated with SK01 for 1 hour, and was treated with the TLR8 agonist TL8-506 for 4 hours, and the level of TNF-α secretion was measured by ELISA.
A general note: An ELISA detects its analyte on a solid surface through an enzyme-linked reagent.

As for `Cc1c(C)n(CCN(C)C)c2nc3c(c(N)c12)CCCCC3` [SK01, 1-(2-(dimethylamino)ethyl)-2,3-dimethyl-1,5,6,7,8,9-hexahydrocyclohepta[b]pyrrolo[3,2-e]pyridin-4-amine], the “activity against TLR8” value is “no activity”.
